Measured values as given in patent publication US20090131327A1, “NOGO RECEPTOR FUNCTIONAL MOTIFS AND PEPTIDE MIMETICS RELATED THERETO AND METHODS OF USING THE SAME” (priority 2005, published 2009).
Where “and” joins values, the source holds several entries; their conditions need not be identical. Equal values may be shown once. Entries after “also recorded” stand apart in the source; their conditions may differ. Positions of bridges follow the written chain, without caps; N, C: chain ends.

What was measured:
cerebellar neurons [1] = assay: Neurite outgrowth assay: antagonism of MAG-Fc-mediated inhibition of neurite outgrowth, neurons over 3T3 monolayers; format: cell-based, rat; conditions: MAG-Fc 20 μg/ml; for peptide concentration with maximal promotion of neurite outgrowth / peptide concentration with significant promotion of neurite outgrowth: FIG. 5; for antagonism of inhibitory activity of MAG-Fc: peptide 50 μg/ml (60 μM); for antagonism of MAG-Fc inhibition of neurite outgrowth: peptide 100 μg/ml, ~23-27 hr, FIG. 2
cerebellar neurons [2] = assay: as above; format: cell-based, rat; conditions: for effectiveness in antagonizing MAG inhibition relative to NRL2: compared with parental peptide NRL2
Description: (§1) Cerebellar neurons isolated from postnatal day 2/3 rat pups were cultured over monolayers of 3T3 cells (Doherty et al. (1991) Neuron 6(2):247-58) essentially as previously described (Williams et al. (1994) Neuron 13(3):583-94). Monolayers were established by seeding ˜80,000 cells into individual chambers of an eight-chamber tissue culture slide coated with poly-L-lysine and fibronectin. The cell lines, and monolayers, were maintained in Dulbecco's modified Eagle's medium supplemented with 10% fetal calf serum (FCS). Cocultures were established by removing the media from the monolayers and seeding ˜6000 dissociated cerebellar neurons into each well in SATO medium (modified from Doherty et al. (1990) Neuron 5(2):209-19; Dulbecco's modified Eagle's medium supplemented with 2% FBS, 33% bovine albumin, 0.62 μg/ml progesterone, 161 μg/ml putrescine, 4 μg/ml L-thyroxine, 0.387 μg/ml selenium, and 3.37 μg/ml tri-iodo-thyronine (components from Sigma-Aldrich, St. Louis, Mo.)). Monolayers were established for 24 hours prior to addition of the neurons and the cultures were maintained for ˜23-27 hr. Following careful fixation with 4% paraformaldehyde, the neurons were immunostained with a GAP-43 antibody, and the mean length of the longest neurite per cell was measured for ˜120-150 neurons, again as previously described (Williams et al. (1994) Neuron 13(3):583-94).
(§2) Synthetic peptides were all obtained from a commercial supplier (Multiple Peptide Systems, San Diego, Calif.). All peptides were purified to the highest grade by reverse-phase HPLC and obtained at the highest level of purity (>97%). With all peptides, there was no indication of higher molecular weight species. Where peptide sequences are underlined, this denotes a peptide that has been cyclized via a disulfide bond between the given cysteine residues. All peptides were acetylated (e.g., denoted with “N—Ac—”) and amide blocked (e.g., denoted with “—NH2”). Recombinant MAG-Fc chimera was obtained from R&D Systems (Minneapolis, Minn.) and used at final concentrations ranging from 5-25 μg/ml. The monoclonal antibody to GT1b (clone GMR5) was obtained from Seikagaku America (Falmouth, Mass.) and was used at a final concentration of 20 μg/ml. All reagents were diluted into the coculture media and, in general, added to the cultures just prior to the plating of the neurons.
MAG was the first inhibitory component of myelin to be identified based on its ability to inhibit neurite outgrowth from postnatal rat cerebellar neurons (Mukhopadhyay et al. (1994) Neuron 13(3):757-67). […] NgR1 function is required for MAG inhibition of neurite outgrowth (Domeniconi et al. (2002) Neuron 35(2):283-90; Liu et al. (2002) Science 297:1190-93). Consequently, in order to determine if the mimetic peptides could antagonize, (e.g., reverse, decrease, reduce, prevent, etc.) NgR1 function (e.g., reverse NgR1-ligand-mediated inhibition of axonal growth), the peptides were tested for their ability to antagonize MAG-mediated inhibition of axonal growth. […] The ability of the NRL peptides to antagonize MAG-mediated inhibition of axonal growth was tested in a number of independent experiments. […] In order to evaluate the efficacy of the NRL2 peptide, the ability of various concentrations of NRL2 to overcome the inhibitory activity of 25 μg/ml of the soluble MAG-Fc chimera was tested. Results obtained from at least three independent experiments have been pooled to generate FIG. 3.

cerebellar neurons [3] = assay: Neurite outgrowth assay: substance alone in coculture media, neurons over 3T3 monolayers; format: cell-based, rat; conditions: without MAG-Fc; for effect on neurite outgrowth in control media: peptide alone
Description: as §1, §2
MAG was the first inhibitory component of myelin to be identified based on its ability to inhibit neurite outgrowth from postnatal rat cerebellar neurons (Mukhopadhyay et al. (1994) Neuron 13(3):757-67). […] NgR1 function is required for MAG inhibition of neurite outgrowth (Domeniconi et al. (2002) Neuron 35(2):283-90; Liu et al. (2002) Science 297:1190-93). […]

myelin = assay: Antagonism of the inhibitory activity of myelin (data not shown); format: cell-based
cerebellar neurons [4] = assay: Neurite outgrowth assay: antagonism of inhibition by anti-GT1b antibody; format: cell-based, rat; conditions: peptide 100 μg/ml; anti-GT1b up to 40 μg/ml; FIG. 4
Description: Cerebellar neurons isolated from postnatal day 2/3 rat pups were cultured over monolayers of 3T3 cells (Doherty et al. (1991) Neuron 6(2):247-58) essentially as previously described (Williams et al. (1994) Neuron 13(3):583-94). Monolayers were established by seeding ˜80,000 cells into individual chambers of an eight-chamber tissue culture slide coated with poly-L-lysine and fibronectin. The cell lines, and monolayers, were maintained in Dulbecco's modified Eagle's medium supplemented with 10% fetal calf serum (FCS). Cocultures were established by removing the media from the monolayers and seeding ˜6000 dissociated cerebellar neurons into each well in SATO medium (modified from Doherty et al. (1990) Neuron 5(2):209-19; Dulbecco's modified Eagle's medium supplemented with 2% FBS, 33% bovine albumin, 0.62 μg/ml progesterone, 161 μg/ml putrescine, 4 μg/ml L-thyroxine, 0.387 μg/ml selenium, and 3.37 μg/ml tri-iodo-thyronine (components from Sigma-Aldrich, St. Louis, Mo.)). Monolayers were established for 24 hours prior to addition of the neurons and the cultures were maintained for ˜23-27 hr. Following careful fixation with 4% paraformaldehyde, the neurons were immunostained with a GAP-43 antibody, and the mean length of the longest neurite per cell was measured for ˜120-150 neurons, again as previously described (Williams et al. (1994) Neuron 13(3):583-94). […]

For “N-Ac-CKFRGSC-NH2 (disulfide 1-7; SMILES CC(=O)N[C@H]1CSSC[C@@H](C(N)=O)NC(=O)[C@H](CO)NC(=O)CNC(=O)[C@H](CCCNC(=N)N)NC(=O)[C@H](Cc2ccccc2)NC(=O)[C@H](CCCCN)NC1=O) [NRL2a]”, the “peptide concentration with maximal promotion of neurite outgrowth” value (cerebellar neurons [1]) was 50 μg/ml and 60 μM, the “peptide concentration with significant promotion of neurite outgrowth” value (cerebellar neurons [1]) was 25 μg/ml and 30 μM and the “antagonism of inhibitory activity of MAG-Fc” value (cerebellar neurons [1]) was “effectively antagonized”. For the same substance, the “effectiveness in antagonizing MAG inhibition relative to NRL2” value (cerebellar neurons [2]) was “as effective as NRL2”, the “effectiveness in antagonizing MAG inhibition relative to NRL2” value (cerebellar neurons [2]; listed as N-Ac-CKFRGSC-NH2) was “as effective as the longer parental peptide” and the “effect on neurite outgrowth in control media” value (“effect on neurite outgrowth” below) (cerebellar neurons [3]) was “no effect”.

With “N-Ac-CQKFRGC-NH2 (disulfide 1-7; SMILES CC(=O)N[C@H]1CSSC[C@@H](C(N)=O)NC(=O)CNC(=O)[C@H](CCCNC(=N)N)NC(=O)[C@H](Cc2ccccc2)NC(=O)[C@H](CCCCN)NC(=O)[C@H](CCC(N)=O)NC1=O) [NRL2b]” the “peptide concentration with maximal promotion of neurite outgrowth” value (cerebellar neurons [1]) was 50 μg/ml and 60 μM, the “peptide concentration with significant promotion of neurite outgrowth” value (cerebellar neurons [1]) was 25 μg/ml and 30 μM and the “antagonism of inhibitory activity of MAG-Fc” value (cerebellar neurons [1]) was “effectively antagonized”. For the same substance, the “effectiveness in antagonizing MAG inhibition relative to NRL2” value (cerebellar neurons [2]) was “as effective as NRL2”, the “effectiveness in antagonizing MAG inhibition relative to NRL2” value (cerebellar neurons [2]; listed as N-Ac-CQKFRGC-NH2) was “as effective as the longer parental peptide” and the “effect on neurite outgrowth” value (cerebellar neurons [3]) was “no effect”.

With “N-Ac-CAGRDLKRC-NH2 (disulfide 1-9; SMILES CC(=O)N[C@H]1CSSC[C@@H](C(N)=O)NC(=O)[C@H](CCCNC(=N)N)NC(=O)[C@H](CCCCN)NC(=O)[C@H](CC(C)C)NC(=O)[C@H](CC(=O)O)NC(=O)[C@H](CCCNC(=N)N)NC(=O)CNC(=O)[C@H](C)NC1=O) [NRL4]” the “antagonism of MAG-Fc inhibition of neurite outgrowth” value (cerebellar neurons [1]) was “MAG-Fc also substantially inhibited neurite outgrowth”.

With NGF: nerve growth factor the “antagonism of the inhibitory activity of myelin” value (myelin) was “do not antagonize”.

In the case of “N-Ac c[sGrfkq]-NH2 (XGXXXX; not fully specified; cyclised or stapled) [hriNRL2]”, the “reversal of MAG-mediated inhibition of neurite outgrowth” value (cerebellar neurons [1]; increasing peptide concentrations, FIG. 6) was “reverse MAG-mediated inhibition of neurite outgrowth”.

“N-Ac-CSLPQRLAC-NH2 (disulfide 1-9; SMILES CC(=O)N[C@H]1CSSC[C@@H](C(N)=O)NC(=O)[C@H](C)NC(=O)[C@H](CC(C)C)NC(=O)[C@H](CCCNC(=N)N)NC(=O)[C@H](CCC(N)=O)NC(=O)[C@@H]2CCCN2C(=O)[C@H](CC(C)C)NC(=O)[C@H](CO)NC1=O) [NRL3]” was tested, and the “antagonism of MAG-Fc inhibition of neurite outgrowth” value (cerebellar neurons [1]) was “MAG-Fc also substantially inhibited neurite outgrowth”.

With “Ac-CTDIKGKEC-NH2 (cysteine pairing not given here)” the “antagonism of the inhibitory activity of myelin” value (myelin) was “do not antagonize”.

With “N-Ac-CLQKFRGSSC-NH2 (disulfide 1-10; SMILES CC(=O)N[C@H]1CSSC[C@@H](C(N)=O)NC(=O)[C@H](CO)NC(=O)[C@H](CO)NC(=O)CNC(=O)[C@H](CCCNC(=N)N)NC(=O)[C@H](Cc2ccccc2)NC(=O)[C@H](CCCCN)NC(=O)[C@H](CCC(N)=O)NC(=O)[C@H](CC(C)C)NC1=O) [NRL2]” the “antagonism of MAG-Fc inhibition of neurite outgrowth” value (cerebellar neurons [1]) was “largely antagonized”, the “activity as MAG antagonist (summary in discussion)” value (cerebellar neurons [2]; four disulfide-constrained NgR1 loop peptides) was “effective MAG antagonist” and the “effect on neurite outgrowth” value (cerebellar neurons [3]) was “no effect”. The “effect on control neurite outgrowth” value (cerebellar neurons [3]; tested at up to 200 μg/ml, FIG. 3) was “little effect” and the “antagonism of inhibitory effects of anti-GT1b antibody” value (cerebellar neurons [4]) was “reversed; also recorded: just as effective”.

In the case of “N-Ac-CYNEPKVTC-NH2 (disulfide 1-9; SMILES CC(=O)N[C@H]1CSSC[C@@H](C(N)=O)NC(=O)[C@H]([C@@H](C)O)NC(=O)[C@H](C(C)C)NC(=O)[C@H](CCCCN)NC(=O)[C@@H]2CCCN2C(=O)[C@H](CCC(=O)O)NC(=O)[C@H](CC(N)=O)NC(=O)[C@H](Cc2ccc(O)cc2)NC1=O) [NRL1]”, the “antagonism of MAG-Fc inhibition of neurite outgrowth” value (cerebellar neurons [1]) was “MAG-Fc also substantially inhibited neurite outgrowth”.
